Numbers after ± are expanded uncertainties.
Settings: Liquid, Vibrating tube method

CCCCCCC(=O)OCC(COC(=O)CCCCCC)(COC(=O)CCCCCC)COC(=O)CCCCCC [pentaerythritol tetraheptanoate]
Settings	mass density [kg/m3]
283.14 K, 30730 kPa	1002.4 ± 1.2
283.14 K, 30755 kPa	1002.4 ± 1.2
283.14 K, 30785 kPa	1002.4 ± 1.2
283.14 K, 30810 kPa	1002.4 ± 1.2
283.14 K, 30836 kPa	1002.5 ± 1.2
283.14 K, 30861 kPa	1002.5 ± 1.2
283.14 K, 30892 kPa	1002.6 ± 1.2
283.14 K, 30917 kPa	1002.5 ± 1.2
283.14 K, 30943 kPa	1002.5 ± 1.2
283.14 K, 30974 kPa	1002.6 ± 1.2
283.14 K, 30999 kPa	1002.5 ± 1.2
283.14 K, 31030 kPa	1002.6 ± 1.2
283.14 K, 31056 kPa	1002.5 ± 1.2
283.14 K, 31082 kPa	1002.6 ± 1.2
283.14 K, 31108 kPa	1002.7 ± 1.2
283.14 K, 31138 kPa	1002.5 ± 1.2
283.14 K, 31165 kPa	1002.5 ± 1.2
283.14 K, 31191 kPa	1002.7 ± 1.2
283.14 K, 31223 kPa	1002.6 ± 1.2
283.14 K, 31249 kPa	1002.7 ± 1.2
283.14 K, 31275 kPa	1002.7 ± 1.2
283.14 K, 31306 kPa	1002.7 ± 1.2
283.14 K, 31332 kPa	1002.7 ± 1.2
283.14 K, 31358 kPa	1002.7 ± 1.2
283.14 K, 31390 kPa	1002.7 ± 1.2
283.14 K, 31416 kPa	1002.8 ± 1.2
283.14 K, 31443 kPa	1002.8 ± 1.2
283.14 K, 31474 kPa	1002.7 ± 1.2
283.14 K, 31501 kPa	1002.8 ± 1.2
283.14 K, 31533 kPa	1002.8 ± 1.2
283.14 K, 31560 kPa	1002.7 ± 1.2
283.14 K, 31587 kPa	1002.8 ± 1.2
283.14 K, 31614 kPa	1002.8 ± 1.2
283.14 K, 31646 kPa	1002.9 ± 1.2
283.14 K, 31672 kPa	1002.9 ± 1.2
283.14 K, 31699 kPa	1003 ± 1.2
283.14 K, 31732 kPa	1002.8 ± 1.2
283.14 K, 31759 kPa	1002.8 ± 1.2
283.14 K, 31791 kPa	1002.9 ± 1.2
283.14 K, 31818 kPa	1002.9 ± 1.2
283.14 K, 31845 kPa	1003 ± 1.2
283.14 K, 31878 kPa	1002.9 ± 1.2
283.14 K, 31905 kPa	1003.1 ± 1.2
283.14 K, 31932 kPa	1002.9 ± 1.2
283.14 K, 31960 kPa	1003 ± 1.2
283.14 K, 31994 kPa	1003 ± 1.2
283.14 K, 32021 kPa	1003 ± 1.2
283.14 K, 32054 kPa	1003.1 ± 1.2
283.14 K, 32082 kPa	1003 ± 1.2
283.14 K, 32109 kPa	1003.2 ± 1.2
283.14 K, 32143 kPa	1003.1 ± 1.2
283.14 K, 32170 kPa	1003.1 ± 1.2
283.14 K, 32198 kPa	1003.1 ± 1.2
283.14 K, 32231 kPa	1003.2 ± 1.2
283.14 K, 32260 kPa	1003.1 ± 1.2
283.14 K, 32288 kPa	1003.2 ± 1.2
283.14 K, 32321 kPa	1003.2 ± 1.2
283.14 K, 32350 kPa	1003.3 ± 1.2
283.14 K, 32378 kPa	1003.2 ± 1.2
283.14 K, 32406 kPa	1003.3 ± 1.2
283.14 K, 32441 kPa	1003.2 ± 1.2
283.14 K, 32469 kPa	1003.3 ± 1.2
283.14 K, 32503 kPa	1003.3 ± 1.2
283.14 K, 32531 kPa	1003.3 ± 1.2
283.14 K, 32560 kPa	1003.4 ± 1.2
283.14 K, 32595 kPa	1003.3 ± 1.2
283.14 K, 32624 kPa	1003.5 ± 1.2
283.14 K, 32653 kPa	1003.3 ± 1.2
283.14 K, 32687 kPa	1003.3 ± 1.2
283.14 K, 32718 kPa	1003.3 ± 1.2
283.14 K, 32747 kPa	1003.4 ± 1.2
283.14 K, 32776 kPa	1003.4 ± 1.2
283.14 K, 32810 kPa	1003.5 ± 1.2
283.14 K, 32840 kPa	1003.5 ± 1.2
283.14 K, 32869 kPa	1003.5 ± 1.2
283.14 K, 32898 kPa	1003.6 ± 1.2
283.14 K, 32934 kPa	1003.4 ± 1.2
283.14 K, 32963 kPa	1003.5 ± 1.2
283.14 K, 32992 kPa	1003.5 ± 1.2
283.14 K, 33028 kPa	1003.6 ± 1.2
283.14 K, 33057 kPa	1003.6 ± 1.2
283.14 K, 33093 kPa	1003.5 ± 1.2
283.14 K, 33125 kPa	1003.6 ± 1.2
283.14 K, 33155 kPa	1003.7 ± 1.2
283.14 K, 33185 kPa	1003.6 ± 1.2
283.14 K, 33215 kPa	1003.7 ± 1.2
283.14 K, 33251 kPa	1003.7 ± 1.2
283.14 K, 33281 kPa	1003.7 ± 1.2
283.14 K, 33311 kPa	1003.6 ± 1.2
283.14 K, 33347 kPa	1003.7 ± 1.2
283.14 K, 33377 kPa	1003.6 ± 1.2
283.14 K, 33414 kPa	1003.7 ± 1.2
283.14 K, 33444 kPa	1003.8 ± 1.2
283.14 K, 33474 kPa	1003.8 ± 1.2
283.14 K, 33511 kPa	1003.8 ± 1.2
283.14 K, 33542 kPa	1003.9 ± 1.2
283.14 K, 33572 kPa	1003.8 ± 1.2
283.14 K, 33604 kPa	1003.8 ± 1.2
283.14 K, 33641 kPa	1003.9 ± 1.2
283.14 K, 33671 kPa	1003.9 ± 1.2
283.14 K, 33708 kPa	1003.8 ± 1.2
283.14 K, 33739 kPa	1003.8 ± 1.2
283.14 K, 33770 kPa	1003.8 ± 1.2
283.14 K, 33808 kPa	1004 ± 1.2
283.14 K, 33839 kPa	1004 ± 1.2
283.14 K, 33870 kPa	1003.9 ± 1.2
283.14 K, 33907 kPa	1004 ± 1.2
283.14 K, 33938 kPa	1003.9 ± 1.2
283.14 K, 34406 kPa	1004.3 ± 1.2
283.14 K, 34575 kPa	1004.3 ± 1.2
283.14 K, 34576 kPa	1004.3 ± 1.2
283.15 K, 100.4 kPa	985.9 ± 1.2

Reference: the NIST ThermoML archive (doi:10.1021/je060271a)
